pIC50: −log10 of the molar value.
Columns and labels:
[1] = system: J82; test: MTT cytotoxicity test, J82 (growth inhibition); format: cell-based; details: Homo sapiens; 1 μg/ml; J82 (bladder); relative to the controls; read-out: Percentage inhibition of growth J82
Procedure: (§1) Thus, the cytotoxic activity of the products was evaluated using the MTT test [T. Mosman, J. Immunol. […] The amount of formazan formed (and consequently the intensity of the color obtained) is directly proportional to the number of living cells present in the culture medium at the time of the test. The lines used are of human origin, and are marketed by the American Type Cell Collection (ATCC), the reference body for the supply of standardized strains.
(§2) The experimental procedure used is essentially that described by C.
(§3) The results are expressed in the form of a percentage inhibition of growth relative to the controls.

[2] = system: MCF-7; test: MTT cytotoxicity test, MCF-7 (growth inhibition); format: cell-based; details: Homo sapiens, MCF7; 1 μg/ml; MCF-7 (breast); relative to the controls; read-out: Percentage inhibition of growth MCF-7
Procedure: as §1, §2, §3

[3] = system: T47D; test: MTT cytotoxicity test, T47D (growth inhibition); format: cell-based; details: Homo sapiens; 1 μg/ml; T47D (breast); relative to the controls; read-out: Percentage inhibition of growth T47
Procedure: as §1, §2, §3

[4] = system: MXT adenocarcinoma; test: in vivo test on MXT adenocarcinoma grafted in B6D2F1 mice; details: for activity on the MXT model: in words, MXT adenocarcinoma model
From the text: The antitumor properties of the products of the invention were confirmed by in vivo tests, in particular on the model of mammalian MXT adenocarcinoma,which is a solid tumor that is particularly insensitive to anticancer agents [C. S. Watson, D. Medina, J. H. Clark, Cancer Res., 37, 3344 (1977); W. T. Bradher and C. A. Claridge, "Antineoplastic Agents", Wiley-Interscience (1984); T. W. Redding and A. V. Schally, Proc. Natl. Acad. Sci. U.S.A., 80, 1459 (1983)].
In this model, mice of type B6D2F1 are grafted by injection (subcutaneous) of a tumor fragment of about 10 mm^3 originating from an MXT tumor. The test products are administered via the i.p. route starting from the 17th day after the graft.

[5] = system: T24; test: MTT cytotoxicity test, T24 (growth inhibition); format: cell-based; details: Homo sapiens, T-24; 1 μg/ml; T24 (bladder); relative to the controls; read-out: Percentage inhibition of growth T24
Procedure: as §1, §2, §3

[6] = system: tubulin; test: inhibition of polymerization of tubulin into microtubules (Weisenberg); format: biochemical; details: variations in optical density; read-out: IC50 (concentration which causes 50% inhibition of the polymerization)
From the text: This property was confirmed by measuring the inhibition of polymerization of tubulin into microtubules in the presence of the compounds of the invention, according to the method described by R. C. Weisenberg (Science 177, 1196-7, 1972). The results are expressed as a concentration of product which causes 50% inhibition of the polymerization. This phenomenon is readily monitored and quantified via the variations in optical density.

Compound	inhibition at 1 µg/mL [1] [%]	inhibition at 1 µg/mL [2] [%]	inhibition at 1 µg/mL [3] [%]	reduction in tumor size relative to the untreated controls ([4]; 9×40 mg/kg, i.p., starting from the 17th day after the graft) [%]	inhibition at 1 µg/mL [5] [%]	pIC50 [6]	activity on the MXT model [4]
CC[C@]12C=CCN3CC[C@@]4(c5cc([C@@]6(C(=O)OC)C[C@@H]7CC(C(C)(F)F)CN(Cc8c6[nH]c6ccccc86)C7)c(OC)cc5N(C)[C@H]4[C@@](O)(C(=O)OC)[C@@H]1OC(C)=O)[C@@H]32 (stereo partly drawn) [Example 1, 19',19'-difluoro 15',20'-dihydrovinorelbine]	45	68	44	40	70	5.60	–
CC[C@]12C=CCN3CC[C@@]4(c5cc([C@@]6(C(=O)OC)C[C@@H]7CC(C(C)(F)F)CN(CCc8c6[nH]c6ccccc86)C7)c(OC)cc5N(C)[C@H]4[C@@](O)(C(=O)OC)[C@@H]1OC(C)=O)[C@@H]32 (stereo partly drawn) [Example 5, 20'-deoxy 19',19'-difluorovinblastine]	15	36	27	–	50	5.05	–
CC[C@]12C=CCN3CC[C@@]4(c5cc([C@@]6(C(=O)OC)C[C@@H]7CC(C(C)(F)F)CN(Cc8c6[nH]c6ccccc86)C7)c(OC)cc5N(C)[C@H]4[C@@](O)(C(=O)OC)[C@@H]1O)[C@@H]32 (stereo partly drawn) [Example 11, 17-deacetyl 19',19'-difluoro 15',20'-dihydrovinorelbine]	60	45	30	–	51	5.54	–
CC[C@]12C=CCN3CC[C@@]4(c5cc([C@@]6(C(=O)OC)C[C@@H]7CC(C(C)(F)F)CN(CCc8c6[nH]c6ccccc86)C7)c(OC)cc5N(C)[C@H]4[C@@](O)(C(=O)OC)[C@@H]1O)[C@@H]32 (stereo partly drawn) [Example 12, 17-deacetyl 20'-deoxy 19',19'-difluorovinblastine]	0	36	27	–	72	5.38	–
CC[C@]1(O)C[C@@H]2CN(CCc3c([nH]c4ccccc34)[C@@](C(=O)OC)(c3cc4c(cc3OC)N(C)[C@H]3[C@@](O)(C(=O)OC)[C@H](OC(C)=O)[C@]5(CC)C=CCN6CC[C@]43[C@@H]65)C2)C1 [VINBLASTINE, vinblastine, reference compound]	–	–	–	–	–	[…]	devoid of activity
CCC1=C[C@@H]2CN(C1)Cc1c([nH]c3ccccc13)[C@@](C(=O)OC)(c1cc3c(cc1OC)N(C)[C@H]1[C@@](O)(C(=O)OC)[C@H](OC(C)=O)[C@]4(CC)C=CCN5CC[C@]31[C@@H]54)C2 [VINORELBINE, vinorelbine, reference compound]	14	50	16	–	62	–	devoid of activity
CC[C@]1(O)C[C@@H]2CN(CCc3c([nH]c4ccccc34)[C@@](C(=O)OC)(c3cc4c(cc3OC)N(C=O)[C@H]3[C@@](O)(C(=O)OC)[C@H](OC(C)=O)[C@]5(CC)C=CCN6CC[C@]43[C@@H]65)C2)C1 [vincristine]	–	–	–	–	–	–	devoid of activity
CC[C@]1(O)C[C@@H]2CN(CCc3c([nH]c4ccccc34)[C@@](C(=O)OC)(c3cc4c(cc3OC)N(C)[C@H]3[C@@](O)(C(N)=O)[C@H](O)[C@]5(CC)C=CCN6CC[C@]43[C@@H]65)C2)C1 [vindesine]	–	–	–	–	–	–	devoid of activity

Source: patent publication US5620985A, “Antimitotic binary alkaloid derivatives from catharanthus roseus” (Pierre Fabre Medicament, priority 1993, dated 1997)
